Results: patent US20040023994A1 (priority 2002, published 2004)
Like-named read-outs stand apart in the source and are kept apart here.

Key:
[1] = tested on: SF-295; conditions: SF-295, CNS, NCI database, cited from earlier work; for CC50: read-out: LC50 (the source's name)
[2] = tested on: BT-549; conditions: BT-549, Breast, NCI database, cited from earlier work; for CC50: read-out: LC50 (the source's name)
[3] = tested on: NCI-H460; conditions: NCI-H460, Non-Small Cell Lung, NCI database, cited from earlier work; for CC50: read-out: LC50 (the source's name)
[4] = tested on: UACC-62; conditions: UACC-62, Melanoma, NCI database, cited from earlier work; for CC50: read-out: LC50 (the source's name)
[5] = tested on: OVCAR-3; conditions: OVCAR-3, Ovarian, NCI database, cited from earlier work; for CC50: read-out: LC50 (the source's name)
[6] = tested on: SF-268; conditions: SF-268, CNS, NCI database, cited from earlier work; for CC50: read-out: LC50 (the source's name)
[7] = tested on: LOX IMVI; conditions: Melanoma, NCI database, cited from earlier work; for CC50: read-out: LC50 (the source's name)
[8] = tested on: SR; conditions: Leukemia, NCI database, cited from earlier work; for CC50: read-out: LC50 (the source's name)
[9] = tested on: HOP-92; conditions: HOP-92, Non-Small Cell Lung, NCI database, cited from earlier work; for CC50: read-out: LC50 (the source's name)
[10] = tested on: HCT-116; conditions: HCT-116, Colon, NCI database, cited from earlier work; for CC50: read-out: LC50 (the source's name)
[11] = tested on: HT29; conditions: HT29, Colon, NCI database, cited from earlier work; for CC50: read-out: LC50 (the source's name)
[12] = tested on: SK-OV-3; conditions: SK-OV-3, Ovarian, NCI database, cited from earlier work; for CC50: read-out: LC50 (the source's name)
[13] = tested on: SF-539; conditions: for CC50: read-out: LC50
[14] = tested on: M14; conditions: for CC50: read-out: LC50
[15] = tested on: SNB-19; conditions: for CC50: read-out: LC50
[16] = tested on: KM12; conditions: for CC50: read-out: LC50
[17] = tested on: BT-549; conditions: for CC50: read-out: LC50
[18] = tested on: UO-31; conditions: for CC50: read-out: LC50
[19] = tested on: SW-620; conditions: for CC50: read-out: LC50
[20] = tested on: HS 578T; conditions: 48 h; for CC50: read-out: LC50
[21] = tested on: SF-295; conditions: for CC50: read-out: LC50
[22] = tested on: CAKI-1; conditions: for CC50: read-out: LC50
[23] = tested on: UACC-62; conditions: for CC50: read-out: LC50
[24] = tested on: NCI/ADR-RES
[25] = tested on: PC-3; type: cell-based; conditions: PC-3, Prostate, 48 h
[26] = tested on: OVCAR-8; conditions: for CC50: read-out: LC50
[27] = tested on: 786-0; conditions: for CC50: read-out: LC50

Nc1nc2nc[nH]c2c(=S)[nH]1 [6-TG, 6-thioguanine]
GI50 [1]: 1.02 µM | TGI [1]: >100 µM | CC50 [1]: > 100 µM | GI50 [2]: 3.59 µM | TGI [2]: >100 µM | CC50 [2]: > 100 µM | GI50 [3]: 0.66 µM | TGI [3]: 20.0 µM | CC50 [3]: > 100 µM | GI50 [4]: 0.5 µM | TGI [4]: 4.53 µM | CC50 [4]: 74.1 µM | GI50 [5]: 0.71 µM | TGI [5]: 6.68 µM | CC50 [5]: > 100 µM | GI50 [6]: 1.14 µM | TGI [6]: >100 µM | CC50 [6]: > 100 µM | CC50 [7]: > 100 µM | GI50 [7]: 0.21 µM | TGI [7]: 8.99 µM | CC50 [8]: > 100 µM | GI50 [8]: 0.19 µM | TGI [8]: 17.9 µM | GI50 [9]: 0.73 µM | TGI [9]: 24.0 µM | CC50 [9]: > 100 µM | GI50 [10]: 0.53 µM | TGI [10]: 16.2 µM | CC50 [10]: > 100 µM | GI50 [11]: 1.13 µM | TGI [11]: >100 µM | CC50 [11]: > 100 µM | GI50 [12]: 0.54 µM | TGI [12]: 16.4 µM | CC50 [12]: > 100 µM

CC(=O)C=CSc1ncnc2nc[nH]c12 [cis-AVTP, 6-(2-acetylvinylthio) purine]
GI50 ([13]; Homo sapiens, SF-539, 48 h): 0.65 µM | CC50 ([13]; Homo sapiens, SF-539, 48 h): 11.8 µM | TGI ([13]; SF-539, CNS, 48 h): 2.86 µM | GI50 ([14]; Homo sapiens, M14, 48 h): 0.07 µM | CC50 ([14]; Homo sapiens, M14, 48 h): 7.75 µM | TGI ([14]; M14, Melanoma, 48 h): 1.89 µM | GI50 ([15]; Homo sapiens, SNB-19, 48 h): 3.66 µM | CC50 ([15]; Homo sapiens, SNB-19, 48 h): 76.3 µM | TGI ([15]; SNB-19, CNS, 48 h): 18.2 µM | GI50 ([16]; Homo sapiens, KM12, 48 h): 3.35 µM | CC50 ([16]; Homo sapiens, KM12, 48 h): > 100 µM | TGI ([16]; KM12, Colon, 48 h): 27.2 µM | TGI ([17]; BT-549, Breast, 48 h): 3.48 µM | GI50 ([17]; Homo sapiens, BT-549, 48 h): 1.24 µM | CC50 ([17]; Homo sapiens, BT-549, 48 h): 9.78 µM | GI50 ([18]; Homo sapiens, UO-31, 48 h): 0.6 µM | CC50 ([18]; Homo sapiens, UO-31, 48 h): 4.48 µM | TGI ([18]; UO-31, Renal, 48 h): 1.85 µM | GI50 ([19]; Homo sapiens, SW-620, 48 h): 1.52 µM | CC50 ([19]; Homo sapiens, SW-620, 48 h): > 100 µM | TGI ([19]; SW-620, Colon, 48 h): >100 µM | TGI ([20]; HS 578T, Breast): 8.79 µM | GI50 ([20]; Homo sapiens, Hs-578T): 0.46 µM | CC50 ([20]; Homo sapiens, Hs-578T): > 100 µM | GI50 ([21]; Homo sapiens, SF-295, 48 h): 0.56 µM | CC50 ([21]; Homo sapiens, SF-295, 48 h): 57.8 µM | TGI ([21]; SF-295, CNS, 48 h): 11.2 µM | TGI ([22]; CAKI-1, Renal, 48 h): 0.55 µM | GI50 ([22]; Homo sapiens, CAKI-1, 48 h): 0.11 µM | CC50 ([22]; Homo sapiens, CAKI-1, 48 h): 2.85 µM | GI50 ([23]; Homo sapiens, UACC-62, 48 h): 0.23 µM | CC50 ([23]; Homo sapiens, UACC-62, 48 h): 5.88 µM | TGI ([23]; UACC-62, Melanoma, 48 h): 1.10 µM | TGI ([24]; Breast, 48 h): 2.79 µM | GI50 ([24]; Homo sapiens, 48 h): 0.51 µM | CC50 ([24]; Homo sapiens, 48 h, read-out: LC50): > 100 µM | GI50 ([25]; Homo sapiens): 2.05 µM | CC50 ([25]; Homo sapiens, read-out: LC50 (the source's name)): 85.1 µM | TGI [25]: 10.2 µM | GI50 ([26]; Homo sapiens, OVCAR-8, 48 h): 1.53 µM | CC50 ([26]; Homo sapiens, OVCAR-8, 48 h): > 100 µM | TGI ([26]; OVCAR-8, Ovarian, 48 h): 5.93 µM | TGI ([27]; 786-0, Renal, 48 h): 3.48 µM | GI50 ([27]; Homo sapiens, 786-0, 48 h): 0.37 µM | CC50 ([27]; Homo sapiens, 786-0, 48 h): 24.9 µM

Sc1ncnc2nc[nH]c12 [6-MP, 6-mercaptopurine]
GI50 [1]: 5.36 µM | TGI [1]: >100 µM | CC50 [1]: > 100 µM | GI50 [2]: > 100 µM | TGI [2]: >100 µM | CC50 [2]: > 100 µM | GI50 [3]: 5.6 µM | TGI [3]: >100 µM | CC50 [3]: > 100 µM | GI50 [4]: 1.63 µM | TGI [4]: >100 µM | CC50 [4]: > 100 µM | GI50 [5]: 0.71 µM | TGI [5]: >100 µM | CC50 [5]: > 100 µM | GI50 [6]: 4.03 µM | TGI [6]: >100 µM | CC50 [6]: > 100 µM | CC50 [7]: > 100 µM | GI50 [7]: 0.35 µM | TGI [7]: >100 µM | CC50 [8]: > 100 µM | GI50 [8]: 1.27 µM | TGI [8]: >100 µM | GI50 [9]: 2.6 µM | TGI [9]: >100 µM | CC50 [9]: > 100 µM | TGI [10]: >100 µM | CC50 [10]: > 100 µM | GI50 [11]: 3.97 µM | TGI [11]: >100 µM | CC50 [11]: > 100 µM | GI50 [12]: 0.97 µM | TGI [12]: >100 µM | CC50 [12]: > 100 µM

CC(=O)C=CSc1nc(N)nc2nc[nH]c12 [trans-AVTG, 6-(2-acetylvinylthio) guanine]
GI50 ([13]; SF-539, CNS, 48 h): 0.81 µM | TGI ([13]; SF-539, CNS, 48 h): 16.3 µM | CC50 ([13]; SF-539, CNS, 48 h): > 100 µM | GI50 ([14]; M14, Melanoma, 48 h): 0.45 µM | TGI ([14]; M14, Melanoma, 48 h): 12.0 µM | CC50 ([14]; M14, Melanoma, 48 h): 53.5 µM | GI50 ([15]; SNB-19, CNS, 48 h): 18.7 µM | TGI ([15]; SNB-19, CNS, 48 h): 50.9 µM | CC50 ([15]; SNB-19, CNS, 48 h): > 100 µM | GI50 ([16]; KM12, Colon, 48 h): 2.71 µM | TGI ([16]; KM12, Colon, 48 h): 13.0 µM | CC50 ([16]; KM12, Colon, 48 h): 64.8 µM | GI50 ([17]; BT-549, Breast, 48 h): 0.39 µM | TGI ([17]; BT-549, Breast, 48 h): 5.75 µM | CC50 ([17]; BT-549, Breast, 48 h): 43.1 µM | GI50 ([18]; UO-31, Renal, 48 h): 0.62 µM | TGI ([18]; UO-31, Renal, 48 h): 11.9 µM | CC50 ([18]; UO-31, Renal, 48 h): 39.1 µM | GI50 ([19]; SW-620, Colon, 48 h): 1.13 µM | TGI ([19]; SW-620, Colon, 48 h): 6.50 µM | CC50 ([19]; SW-620, Colon, 48 h): > 100 µM | GI50 ([20]; HS 578T, Breast): 1.78 µM | TGI ([20]; HS 578T, Breast): 26.9 µM | CC50 ([20]; HS 578T, Breast): > 100 µM | GI50 ([21]; SF-295, CNS, 48 h): 0.43 µM | TGI ([21]; SF-295, CNS, 48 h): 0.92 µM | CC50 ([21]; SF-295, CNS, 48 h): 82.9 µM | GI50 ([22]; CAKI-1, Renal, 48 h): 0.16 µM | TGI ([22]; CAKI-1, Renal, 48 h): 0.51 µM | CC50 ([22]; CAKI-1, Renal, 48 h): 13.7 µM | GI50 ([23]; UACC-62, Melanoma, 48 h): 0.28 µM | TGI ([23]; UACC-62, Melanoma, 48 h): 0.93 µM | CC50 ([23]; UACC-62, Melanoma, 48 h): 24.9 µM | GI50 ([24]; Breast, 48 h): 0.35 µM | TGI ([24]; Breast, 48 h): 7.40 µM | CC50 ([24]; read-out: LC50, Breast, 48 h): > 100 µM | GI50 [25]: 3.96 µM | TGI [25]: 19.7 µM | GI50 ([26]; OVCAR-8, Ovarian, 48 h): 0.55 µM | TGI ([26]; OVCAR-8, Ovarian, 48 h): >100 µM | CC50 ([26]; OVCAR-8, Ovarian, 48 h): > 100 µM | GI50 ([27]; 786-0, Renal, 48 h): 0.98 µM | TGI ([27]; 786-0, Renal, 48 h): 21.9 µM | CC50 ([27]; 786-0, Renal, 48 h): > 100 µM
